Measurements published in US11419916B2, “Methods and compositions for inducing differentiation of human brown adipocyte progenitors” (Energesis Pharmaceuticals, Inc., priority 2014, dated 2022).
Structures can show the parent of a compound that is named as a salt.

B1: FGF10: fibroblast growth factor-10, keratinocyte growth factor-2 (protein, UniProt O15520 38-208, looked up)
Fibroblast growth factor 10: QALGQDMVSPEATNSSSSSFSSPSSAGRHVRSYNHLQGDVRWRKLFSFTKYFLKIEKNGKVSGTKKENCPYSILEITSVEIGVVAVKAINSNYYLAMNKKGKLYGSKEFNNDCKLKERIEENGYNTYASFNWQHNGRQMYVALNGKGAPRRGQKTRRKNTSAHFLPMVVHS
B2: CNTF: ciliary neurotrophic factor (protein, UniProt P26441 1-200, looked up)
Ciliary neurotrophic factor: MAFTEHSPLTPHRRDLCSRSIWLARKIRSDLTALTESYVKHQGLNKNINLDSADGMPVASTDQWSELTEAERLQENLQAYRTFHVLLARLLEDQQVHFTPTEGDFHQAIHTLLLQVAAFAYQIEELMILLEYKIPRNEADGMPINVGDGGLFEKKLWGLKVLQELSQWTVRSIHDLRFISSHQTGIPARGSHYIANNKKM
B3: BDNF: brain-derived neurotrophic factor (protein, UniProt P23560 19-247, looked up)
Neurotrophic factor BDNF …: APMKEANIRGQGGLAYPGVRTHGTLESVNGPKAGSRGLTSLADTFEHVIEELLDEDQKVRPNEENNKDADLYTSRVMLSSQVPLEPPLLFLLEEYKNYLDAANMSMRVRRHSDPARRGELSVCDSISEWVTAADKKTAVDMSGGTVTVLEKVPVSKGQLKQYFYETKCNPMGYTKEGCRGIDKRHWNSQCRTTQSYVRALTMDSKKRIGWRFIRIDTSCVCTLTIKRGR
B4: FGF13: fibroblast growth factor-13 (protein, UniProt Q92913 1-245, looked up)
Fibroblast growth factor 13: MAAAIASSLIRQKRQAREREKSNACKCVSSPSKGKTSCDKNKLNVFSRVKLFGSKKRRRRRPEPQLKGIVTKLYSRQGYHLQLQADGTIDGTKDEDSTYTLFNLIPVGLRVVAIQGVQTKLYLAMNSEGYLYTSELFTPECKFKESVFENYYVTYSSMIYRQQQSGRGWYLGLNKEGEIMKGNHVKKNKPAAHFLPKPLKVAMYKEPSLHDLTEFSRSGSGTPTKSRSVSGVLNGGKSMSHNEST
B5: FGF7: fibroblast growth factor-7, keratinocyte growth factor (protein, UniProt P21781 32-194, looked up)
Fibroblast growth factor 7: CNDMTPEQMATNVNCSSPERHTRSYDYMEGGDIRVRRLFCRTQWYLRIDKRGKVKGTQEMKNNYNIMEIRTVAVGIVAIKGVESEFYLAMNKEGKLYAKKECNEDCNFKELILENHYNTYASAKWTHNGGEMFVALNQKGIPVRGKKTKKEQKTAHFLPMAIT

Each molecule was assayed on CD31-cells (BAT progenitor cells isolated from human skeletal muscle) (assay: Quantification of UCP1 and PPARγ2 mRNA (normalized to cyclophilin A) by multiplexed TaqMan real-time PCR to quantify differentiation into brown adipocytes). Conditions: not given.
Assay type: cell-based
Source text: A robust method, previously disclosed in WO2013071063 and incorporated herein by reference, was used for detection of CD31-cell differentiation into brown adipocytes by simultaneously quantifying mRNA species corresponding to the brown adipocyte marker UCP1, the adipocyte marker PPARγ2, and the “housekeeping” gene cyclophilin A which was used as the internal control.
This method permits analysis of a large number of samples to identify agents that enhance the differentiation of CD31-cells into brown adipocytes. When differentiated into brown adipocytes CD31-cells express much higher levels of UCP1 and PPARγ2 mRNA for a given level of cyclophilin A. UCP1 and PPARγ2 mRNA levels normalized to cyclophilin A mRNA levels give an indication of the level of differentiation of the CD31-cells into brown adipocytes, independent of the total number of cells in the sample.
Quantification of UCP1, PPARγ2 and cyclophilin A mRNA by multiplexed TaqMan real-time PCR was thus used to quantify differentiation of the CD31-cells into brown adipocytes.
Cells were seeded at 10,000 per cm^2 in 0.2% gelatin coated plates (48-well tissue culture, Chemglass #CLS-3500-048), cultured until confluency (2-4 days) at 37° C. in Endothelial cell growth medium-2 (EGM2) (BulletKit growth medium, Lonza #CC-3162) and until differentiation (10-16 more days). After 2 or 3 days in EGM2 medium the cells were induced to differentiate by replacing the medium with an adipogenic medium, which is a modification of the adipogenic medium described by Rodriguez et al. and may or may not contain a differentiation inducing agent (e.g., PPARγ agonist). […] If rosiglitazone is used as a differentiation-inducing agent, it can be supplied at 1 μM or any other concentration sufficient to induce differentiation of BAT progenitor cells into adipocytes.
Total RNA was prepared from cells using PureLink RNA Isolation Kit (Invitrogen #12183-016) First strand cDNA were synthesized using the High Capacity cDNA Reverse Transcription kit (Applied Biosystems, Foster City, Calif.) and random primers.
Quantitative real-time PCR was performed using an Applied Biosystems StepOnePlus™ instrument, TaqMan Gene Expression Master Mix (Applied Biosystems #4369016), and custom TaqMan gene expression probes and primers for human uncoupling protein-1 “UCP1” (GenBank NM_021833) and for human peptidylprolyl isomerase A “cyclophilin A” (GenBank NM_021130).
Cyclophilin A was used as a control to account for any variations due to the efficiency of reverse transcription. Arbitrary units were determined by normalizing target mRNA levels to cyclophilin A mRNA levels (based on Cts).
With `CCCCC[C@H](O)/C=C/[C@@H]1[C@@H](C/C=C\CCCC(=O)O)[C@H](O)C[C@H]1O` [9β,11α-prostaglandin F2] the “differentiation of BAT progenitor cells into brown adipocytes and/or expression of UCP1, PPARγ2 mRNA” value (from here on “differentiation … PPARγ2 mRNA”) was “promote the differentiation of BAT progenitor cells into brown adipocytes and/or induce the expression of UCP1”. With `O=C1NC(c2cccc([N+](=O)[O-])c2)=CCN1c1ccccc1O` [icilin] the “differentiation … PPARγ2 mRNA” value was “promote the differentiation of BAT progenitor cells into brown adipocytes and/or induce the expression of UCP1”. In the case of `CC1CCC(C(C)C)C(O)C1` (stereo not drawn) [menthol], the “differentiation … PPARγ2 mRNA” value is reported as “promote the differentiation of BAT progenitor cells into brown adipocytes and/or induce the expression of UCP1”. `CC1(C)CC[C@]2(C(=O)O)CC[C@]3(C)C(=CC[C@@H]4[C@@]5(C)CC[C@H](O)C(C)(C)[C@@H]5CC[C@]43C)[C@@H]2C1` [oleanolic acid] was tested, and the “differentiation … PPARγ2 mRNA” value was “promote the differentiation of BAT progenitor cells into brown adipocytes and/or induce the expression of UCP1”. For `COC(=O)N(C)c1c(N)nc(-c2nn(Cc3ccccc3F)c3ncccc23)nc1N` [riociguat], the “differentiation … PPARγ2 mRNA” value was “promote the differentiation of BAT progenitor cells into brown adipocytes and/or induce the expression of UCP1”. `COc1ccc(C2CNC(=O)C2)cc1OC1CCCC1` (stereo not drawn) [rolipram] was tested, and the “differentiation … PPARγ2 mRNA” value was “promote the differentiation of BAT progenitor cells into brown adipocytes and/or induce the expression of UCP1”. In the case of `CN/C(=N\c1ccc(C2=NNC(=O)CC2C)cc1)NC#N` (stereo not drawn) [siguazodan], the “differentiation … PPARγ2 mRNA” value is reported as “promote the differentiation of BAT progenitor cells into brown adipocytes and/or induce the expression of UCP1”. With BNP: b-type natriuretic peptide the “differentiation … PPARγ2 mRNA” value was “promote the differentiation of BAT progenitor cells into brown adipocytes and/or induce the expression of UCP1”. With “PACAP Propeptide of 55 aa (aa 25-79): peptide derived from the Pituitary adenylate cyclase-activating polypeptide (PACAP, ADCYAP1, UniProt P18509) gene (SPAAAGLRFPGIRPEEEAYGEDGNPLPDFDGSEPPGAGSPASAPRAAAAWYRPAG; UniProt P18509 25-79, looked up, fragment)” the “differentiation … PPARγ2 mRNA” value was “promote the differentiation of BAT progenitor cells into brown adipocytes and/or induce the expression of UCP1”. In the case of bombesin, the “differentiation … PPARγ2 mRNA” value is reported as “promote the differentiation of BAT progenitor cells into brown adipocytes and/or induce the expression of UCP1”. For “interleukin-6 (IL-6): Interleukin-6, UniProt P05231”, the “differentiation … PPARγ2 mRNA” value was “promote the differentiation of BAT progenitor cells into brown adipocytes and/or induce the expression of UCP1”. With orexin B: orexin B the “differentiation … PPARγ2 mRNA” value was “promote the differentiation of BAT progenitor cells into brown adipocytes and/or induce the expression of UCP1”. In the case of B1, the “differentiation … PPARγ2 mRNA” value is reported as “promote the differentiation of BAT progenitor cells into brown adipocytes and/or induce the expression of UCP1”. With B2 the “differentiation … PPARγ2 mRNA” value was “promote the differentiation of BAT progenitor cells into brown adipocytes and/or induce the expression of UCP1”. With B3 the “differentiation … PPARγ2 mRNA” value was “promote the differentiation of BAT progenitor cells into brown adipocytes and/or induce the expression of UCP1”. B4 was tested, and the “differentiation … PPARγ2 mRNA” value was “promote the differentiation of BAT progenitor cells into brown adipocytes and/or induce the expression of UCP1”. B5 was tested, and the “differentiation … PPARγ2 mRNA” value was “promote the differentiation of BAT progenitor cells into brown adipocytes and/or induce the expression of UCP1”.

These molecules were tested on CD31-cells (brown adipocyte progenitors) (assay: Quantification of UCP1 protein by immunohistochemistry (IHC)). Conditions: total intensity of UCP1 signal normalized to cell number.
Assay type: cell-based, human
Procedure: Differentiation of brown adipocyte progenitors into brown adipocytes can be detected through quantification of UCP1 protein by immunohistochemistry (IHC).
Culturing and differentiation of CD31-cells into brown adipocytes were performed using adipogenic differentiation medium lacking (Minimal Differentiation Medium, MDM) or containing 1 μM rosiglitazone (Reference Differentiation Medium, RDM). After 15 days of differentiation cells were fixed with 4% Paraformaldehyde PBS pH 7.4, and incubated with a UCP1 antibody (Abcam ab23841) and Alexafluor 488 goat anti-rabbit antibody to quantify relative UCP1 levels (green) according to standard protocols. Prior to fixation of cells, nuclei were labeled with 5 μM DAPI (blue) for 10 minutes. Each treatment condition was evaluated in triplicate in a 96-well plate corresponding to approximately 360-480 cells for each data point in total. The InCell 1000 Developer Toolbox software was used to develop an automated cell detection script to measure UCP1 signal intensity, using the nuclei and cytoplasm detection algorithms. As a readout, total intensity of UCP1 signal within the cell was used, normalized to cell number.
With `COc1cc2c(c(OC)c1OC)-c1ccc(OC)c(=O)cc1[C@@H](NC(C)=O)CC2` [Colchicine] the “UCP1 protein signal (IHC), differentiation of brown adipocyte progenitors into brown adipocytes” value was “identified using this technique”. With `NC(N)=Nc1nc(CSCCC(N)=NS(N)(=O)=O)cs1` [Famotidine] the “UCP1 protein signal (IHC), differentiation of brown adipocyte progenitors into brown adipocytes” value was “identified using this technique”. `N=C(N)NC(=O)Cc1c(Cl)cccc1Cl` [Guanfacine hydrochloride] was tested, and the “UCP1 protein signal (IHC), differentiation of brown adipocyte progenitors into brown adipocytes” value was “identified using this technique”. For `CN(C)C(=N)N=C(N)N` [Metformin], the “UCP1 protein signal (IHC), differentiation of brown adipocyte progenitors into brown adipocytes” value was “identified using this technique”. For `COC(=O)[C@H]1[C@H]2C[C@@H]3c4[nH]c5cc(OC)ccc5c4CCN3C[C@H]2C[C@@H](OC(=O)c2cc(OC)c(OC)c(OC)c2)[C@@H]1OC` [Reserpine], the “UCP1 protein signal (IHC), differentiation of brown adipocyte progenitors into brown adipocytes” value was “identified using this technique”. For `O=C(CCCN1CCC2(CC1)C(=O)NCN2c1ccccc1)c1ccc(F)cc1` [Spiperone], the “UCP1 protein signal (IHC), differentiation of brown adipocyte progenitors into brown adipocytes” value was “identified using this technique”. `CCSc1ccc2c(c1)N(CCCN1CCN(C)CC1)c1ccccc1S2` [Thiethylperazine] was tested, and the “UCP1 protein signal (IHC), differentiation of brown adipocyte progenitors into brown adipocytes” value was “identified using this technique”.
